Reference: patent US6346098B1, “Methods and kits for locally administering an active agent to an interstitial space of a host” (The Board of Trustees of the Leland Stanford Junior …, priority 2000, dated 2002)

Columns and labels:
[1] = Coronary venous injection of Evans Blue dye via AIV or MCV, regional myocardial infiltration; type: in vivo, pigs; settings: LV apex, anterior interventricular septum and anterior wall via AIV, inferoposterior wall via MCV
Experimental: Methods and Results: In 13 anesthetized pigs the coronary sinus was cannulated percutaneously and a balloon-tipped catheter was advanced to the anterior interventricular vein (AIV) or middle cardiac vein (MCV). […] Injection was performed with hyperbaric pressure in 8/13 cases (61%).

[2] = total group of 13 pigs, coronary venous injection

| Compound | infiltration of targeted myocardial regions [1] | persistence of contrast in myocardium (videodensitometric analysis) [2] | time for 50% clearance from myocardium (videodensitometric analysis) ([2]; FIG. 1) |
| --- | --- | --- | --- |
| Cc1cc(-c2ccc(/N=N/c3ccc4c(S(=O)(=O)O)cc(S(=O)(=O)O)c(N)c4c3O)c(C)c2)ccc1/N=N/c1ccc2c(S(=O)(=O)O)cc(S(=O)(=O)O)c(N)c2c1O [Evans Blue dye, Evans Blue] | localized, regional infiltration was reproducibly accomplished | – | – |
| CC(=O)Nc1c(I)c(NC(C)=O)c(I)c(C(=O)O)c1I [diatrizoate] | – | at least 30 minutes | ~4 min |
